Patent US20230364204A1, “Bioactive Peptides, Compositions, Production Process, and Use of Bioactive Peptides as Anti-Tumoral Agents” (priority 2022, published 2023)

Assays:
[1] = tested on: Triple negative breast tumor cells (MDAMB231); test: Observation of triple negative breast tumor cells after treatment (FIG. 3/4); format: cell-based; conditions: MDAMB231, treated for 24 h
Description: FIG. 3 illustrates the untreated triple negative tumor cells, presented in large numbers.
FIG. 4 illustrates the tumor cells after being treated with the peptide 3-NantC (SEQ ID 1) for 24h. The arrows indicate the tumor cells, which are shown in smaller numbers and with vesicles when compared with the untreated tumor cells.

[2] = tested on: MDAMB231 cells (triple negative); test: MTT cell viability, tumor cells; format: cell-based
Description: For the method of MTT, the cells were plated in 96-well sterile plates for cell culture with a cap at the density of 2 × 10^4 cells/well for treatments lasting 24 h and 1 × 10^4 cells/well for treatments lasting 48 h or more, completing the volume to 100 µL with culture medium. The plates were incubated for 8-16 h in an incubator at 37° C. and 5% CO2. The next day, the treatments were prepared in culture medium, applying 200 µL/well at the desired concentration, and the plates were placed in an incubator at 37° C. and 5% CO2for the duration of treatment. After the treatment period, 20 µL/well of a MTT solution was added in PBS (1×) at a concentration of 5 mg/mL, and the dye was incubated at 37° C. and 5% CO2 for 2.5 h. After incubation with MTT, Formazan salts were solubilized with the addition of 200 µL of dimethylsulfoxide solution (DMSO): isopropanol (3:1) and agitated for at least 15 minutes at room temperature. After complete dissolution of the salts, the absorbance was read in a spectrophotometer at 570 nm with endpoint protocol.
The calculation of cell viability was performed using the formula: […]
O.D.: optical density captured by spectrophotometer
NOTE: The Basal O.D. is the one found in the blank wells.
In order to determine the efficacy (comparison of doses and times for the MDAMB231 cell line) and safety (comparison between the effects on MDAMB231 and HDFa cells) of the peptide SEQ ID 1 - MFYPDSRCRGPSET (C-terminal region of Crotoxin B), named 3-NAntC, the Analysis of Variance (ANOVA) with Bonferroni post-hoc test was applied to the significance of 5% in GraphPad Prism software version 6.0.

[3] = tested on: MDAMB231 cell line; test: Cell cycle progression (propidium iodide flow cytometry); format: cell-based; conditions: MDAMB231, 48 h, highest dosage
Description: For cell cycle progression method, cells were plated in 6-well sterile plates for cell culture with a cap at the density of 2.5 × 10^5 cells/well for treatments lasting 24 h or more, completing the volume with 1000 µL culture medium. The plates were incubated for 8-16 h in an incubator at 37° C. and 5% CO2. The next day, the treatments were prepared in culture medium, applying 2000 µL/well at the desired concentration, and the plates were placed in an incubator at 37° C. and 5% CO2 for the duration of treatment. After the treatment period, cells were collected in a conic 15 mL tube and washed with 1000 µL of PBS (1×). Cells were resuspended in 500 µL/tube of PBS (1×) and 4.5 mL of Ethanol 70°. Then, tubes were closed and kept at 2-4° C. for up to 2 months. Cells were washed with PBS (1×) and resuspended with 135 µL of PBS (1×). A solution of RnaseA at 100 µg/mL was added and incubated at RT for 30 minutes. After incubation, cells were labeled with 2 µL of Propidium Iodide at 100 µg/mL and read at the flow cytometer for size and DNA content.
In order to determine the effects of the peptide in cell cycle progression (MDAMB231 cell line), the Analysis of Variance (ANOVA) with Dunnet post-hoc test was applied to the significance of 5% in GraphPad Prism software version 6.0.

[4] = tested on: MDAMB231 cells; test: MTT with or without autophagy inhibitor 3-methyladenine (3-MA); format: cell-based
Description: The 3-Methyladenine (3-MA) is an autophagy inhibitor (blocks the activation of this mechanism of action). For molecules that trigger autophagy as a cell death mechanism when this pathway is blocked the molecule loses action.
The MTT method was carried out as previously described herein, comparing the effect of 3-NAntC with or without 3-Methyladenine (3-MA).
(§1) In order to determine the effects of the peptide in LDH release, autophagy induction and apoptosis/necrosis profile of MDAMB231 cell line, the Analysis of Variance (ANOVA) with Dunnet and Bonferroni post-hoc tests were applied to the significance of 5% in GraphPad Prism software version 6.0.

[5] = tested on: MDAMB231 cell line; test: Apoptosis/necrosis flow cytometry (Annexin V-FITC / propidium iodide); format: cell-based
Source text: Annexin V is a potent marker for apoptosis since it binds to the phosphatidylserine of the cell membrane. This binding only occurs when the phosphatidylserine is externalized in the membrane, which is one of the first signals of apoptosis death. Meanwhile propidium iodide only enters the cells after a membrane rupture and can indicate a final step to cell death. The double labeling with these markers allows to distinguish apoptosis and necrosis death through the following characterization: • Annexin V^- / Pl^-: live cells • Annexin V^+ / Pl^-: cells in early apoptosis • Annexin V^+ / Pl^+: cell in late apoptosis • Annexin V^- / Pl^+: cells in necrosis
For Apoptosis/ Necrosis protocol, cells were plated 6-well sterile plates for cell culture with a cap at the density of 2.5 × 10^5 cells/well for treatments lasting 24 h or more, completing the volume with 1000 µL culture medium. The plates were incubated for 8-16 h in an incubator at 37° C. and 5% CO2. The next day, the treatments were prepared in culture medium, applying 2000 µL/well at the desired concentration, and the plate was placed in an incubator at 37° C. and 5% CO2 for the duration of treatment. After the treatment period, cells were collected in a conic 15 mL tube and washed with 200 µL of binding buffer (1×) from the FITC Annexin V Apoptosis Detection Kit I. Cells were resuspended in 100 µL/tube of binding buffer (1×) and 1 µL of Annexin V-FITC was added to each tube except the blank. Cells were then incubated for 20 min. in ice and in the dark. Then, 50 µL/tube of binding buffer was added and cells were labeled with 2 µL of Propidium Iodide (PI) at 100 µg/mL and read at the flow cytometer for size and fluorescent content (FITC and PI).
as §1

[6] = tested on: zebrafish embryos; test: Tolerability in zebrafish embryos; format: in vivo; conditions: even at a dose 50,000 times higher than the in vitro MDAMB231 IC50 at 24 h
[7] = tested on: Rho-GTPases (Rho-A, Rho-C), protein elongation mechanism; test: Proteomics analysis; format: cell-based; conditions: data not shown

## CSCC[C@H](N)C(=O)N[C@@H](Cc1ccccc1)C(=O)N[C@@H](Cc1ccc(O)cc1)C(=O)N1CCC[C@H]1C(=O)N[C@@H](CC(=O)O)C(=O)N[C@@H](CO)C(=O)N[C@@H](CCCNC(=N)N)C(=O)N[C@@H](CS)C(=O)N[C@@H](CCCNC(=N)N)C(=O)NCC(=O)N1CCC[C@H]1C(=O)N[C@@H](CO)C(=O)N[C@@H](CCC(=O)O)C(=O)N[C@H](C(=O)O)[C@@H](C)O [3-NAntC, [H]-MFYPDSRCRGPSET-[OH]]
[1]
  number of tumor cells compared to no treatment: lower numbers
  number of vesicles compared to no treatment: greater number of vesicles
[2]; MDAMB231, SEQ IDs 2-10 compared to SEQ ID 1
  compared efficacy in decreasing MDAMB231 cells' viability (MTT, FIG. 13/14): highest antitumor effect
[2]; MDAMB231, as early as 48 h of treatment
  antitumor effect compared to Cisplatin (MTT): exceeds the antitumor effect of Cisplatin
[3]
  decrease in cells in G0/G1: 8.72%
  increase of G2/M percentage: 8.08%
[4]
  activity with and without the autophagy inhibitor 3-MA (MTT): remains the same
[5]; MDAMB231, 24 and 48 h, 0.8 µg/mL
  percentage of cells in necrosis: maintaining the percentage of cells in necrosis
[5]; MDAMB231, 24 h, 0.8 µg/mL
  increase of apoptosis rate: about 20%
[5]; MDAMB231, 48 h, 0.8 µg/mL
  increase of apoptosis rate: about 20%
[5]; MDAMB231, 72 h, highest dosage
  increase of apoptosis rate: 28.73%
[6]
  embryo survival: high embryo survival
  tolerability in zebrafish embryos: well tolerated
[7]
  Rho-GTPases expression (e.g. Rho-A and Rho-C): diminished
  protein elongation mechanism: continuously disabling
